Experimental data as given in patent US20260035356A1, “MODULATORS OF TYK2 PROTEOLYSIS AND ASSOCIATED METHODS OF USE” (Arvinas Operations, Inc., priority 2022, published 2026).
“Also recorded” adds a separate entry of the source.

Each compound was assayed against T1, TYK2 (Homo sapiens, UniProt P29597) (assay: TYK2 degradation in MOLT-4 cells (Western blot, TYK2 level relative to DMSO-treated cells)). Conditions: 24 hour treatment, PROTAC 1 plus pomalidomide (competing for CRBN binding).
T1 construct: MOLT-4 cells (ATCC CRL-1582) were acquired from ATCC and maintained in RPMI-1640 medium; host or cells: MOLT-4 cells
Type: cell-based
Description: With reference to FIGS. 2A-2B. MOLT-4 cells (ATCC CRL-1582) were acquired from ATCC and maintained in RPMI-1640 medium supplemented with 10% fetal bovine serum (ATCC 30-2020), the combination henceforth referred to as “media”. Cells were maintained according to ATCC, (see product sheet), including incubation at 37° C. with 5% C02 in air other than during brief manipulations in a cell culture hood or during centrifugation.
18-24 hours before compound treatment, cells growing for 2-3 days in a flask were centrifuged at 200×g for 8 min, the media was aspirated, and fresh media was used to resuspend the cells. Cells were then counted, diluted with fresh media, and seeded at 650,000-750,000 cells/ml in 6-well plates, with 2 ml of volume per well.
Compounds to be tested were solubilized and stored in dimethyl sulfoxide (DMSO) at 10 mM. Compounds were first diluted in DMSO and then media so that the DMSO concentration was identical across treatments and the final concentration of DMSO was below 0.1% (typically 0.04%). Cells in each well of a 6-well plate were treated by adding 0.5 ml of fresh media containing varying concentrations of compounds to be tested—or only DMSO as a “no treatment” control.
Cells were harvested 24 hours after treatment by collecting all volume from each well into labeled microfuge tubes followed by centrifugation at 200×g for 8 min. Cells were washed in 1 ml of phosphate buffered saline (DPBS; Gibco 141190144) and then 0.5 ml of DPBS by centrifugation (as above) and aspiration. Cell pellets were resuspended by pipetting up-and-down in 100 microliters of ice cold RIPA buffer (Thermo, 89900) supplemented with 1× protease inhibitor cocktail and 1×EDTA (Pierce, 87786) and 1× phosphatase inhibitor cocktail (Pierce, 78420). Cell extracts were incubated on ice for 10 min and then centrifuged at 21,130×g for 20 min in a microfuge. Supernatants were collected and protein concentration for each sample was determined using a BCA kit (Thermo, 23225). Each sample was then denatured by adding 4×LDS buffer (Invitrogen, NP0008) to 1× followed by heating at 95° C. for 5 minutes.
Proteins were separated by electrophoresis using a XCell4 Surelock Midi-Cell apparatus (Invitrogen) and then transferred to PVDF membranes within iBlot 2 Transfer Stacks (Invitrogen, IB24001) using an iBlot 2 system (Invitrogen). Membranes were cut horizontally at a 50 kDa molecular weight marker and each piece of membrane was blocked in TBS-T+5% non-fat dry milk (NFDM) for 1-24 hours. Membranes were then incubated with antibody to TYK2 (Cell Signaling Technologies, 14193) or GAPDH (Cell Signaling Technologies, 5174; as loading control) in TBS-T+1% NFDM for 1 hour. Membranes were washed four times in TBS-T for 10 min each time, and then incubated with a HRP-conjugated secondary antibody (Cell Signaling Technologies, 7074) in TBS-T+1% NFDM for one hour. Membranes were washed four times for 10 min in TBS-T. Membranes were then incubated with reagents according to the SuperSignal West Femto Kit (Thermo, 34095) for 1 min at room temperature. Membranes were then imaged using a Gel Doc XR+ system (BioRad).
Captured images were processed using Image Lab software (BioRad). Using the volume tool, band intensities within rectangles of equal area were determined with the local subtraction method. The effects of compounds on TYK2 levels were related to the level of TYK2 from cells treated with only DMSO (no compound).

T1 sequence (P29597 whole entry): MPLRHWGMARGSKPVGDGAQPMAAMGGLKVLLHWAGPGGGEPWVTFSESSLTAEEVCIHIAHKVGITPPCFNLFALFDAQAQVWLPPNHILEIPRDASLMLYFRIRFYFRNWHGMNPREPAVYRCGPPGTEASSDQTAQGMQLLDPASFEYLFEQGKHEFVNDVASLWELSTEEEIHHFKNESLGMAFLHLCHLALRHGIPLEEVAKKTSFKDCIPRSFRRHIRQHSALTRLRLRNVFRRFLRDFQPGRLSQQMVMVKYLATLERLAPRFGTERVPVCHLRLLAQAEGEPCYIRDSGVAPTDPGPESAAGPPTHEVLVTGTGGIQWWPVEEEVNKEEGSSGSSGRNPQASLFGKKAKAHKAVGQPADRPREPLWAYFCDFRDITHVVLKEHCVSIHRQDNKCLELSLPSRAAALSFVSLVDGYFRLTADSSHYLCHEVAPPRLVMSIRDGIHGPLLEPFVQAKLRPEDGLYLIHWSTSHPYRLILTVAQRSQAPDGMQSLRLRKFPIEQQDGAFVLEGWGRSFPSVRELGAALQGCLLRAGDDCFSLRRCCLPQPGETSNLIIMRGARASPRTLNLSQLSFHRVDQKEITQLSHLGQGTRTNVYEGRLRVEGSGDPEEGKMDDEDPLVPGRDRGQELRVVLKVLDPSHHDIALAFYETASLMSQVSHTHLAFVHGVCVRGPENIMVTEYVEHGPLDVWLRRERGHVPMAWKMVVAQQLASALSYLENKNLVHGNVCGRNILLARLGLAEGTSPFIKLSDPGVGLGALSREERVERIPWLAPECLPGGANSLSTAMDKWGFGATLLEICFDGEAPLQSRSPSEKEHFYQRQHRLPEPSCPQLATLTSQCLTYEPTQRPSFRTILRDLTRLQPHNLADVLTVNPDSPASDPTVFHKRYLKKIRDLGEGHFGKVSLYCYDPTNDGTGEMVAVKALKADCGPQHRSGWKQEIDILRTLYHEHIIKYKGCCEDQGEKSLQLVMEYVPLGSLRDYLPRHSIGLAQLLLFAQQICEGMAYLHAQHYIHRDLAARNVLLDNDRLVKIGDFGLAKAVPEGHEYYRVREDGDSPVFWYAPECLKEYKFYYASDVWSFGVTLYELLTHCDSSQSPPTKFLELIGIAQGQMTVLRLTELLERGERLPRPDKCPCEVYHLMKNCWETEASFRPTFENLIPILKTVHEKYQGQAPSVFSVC

| Compound | amount of TYK2 protein, normalized to GADPH, under competition with pomalidomide (FIG. 2B) |
| --- | --- |
| CNC(=O)c1nnc(NC(=O)CCN2CCC(C3CN(c4ccc5c(c4)C(=O)N(C4CCC(=O)NC4=O)C5=O)C3)CC2)cc1Nc1cccc(-c2ncn(C)n2)c1OC (stereo not shown) [PROTAC 1, 6-(3-(4-(1-(2-(2,6-Dioxopiperidin-3-yl)-1,3-dioxoisoindolin-5-yl)azetidin-3-yl)piperidin-1-yl)propanamido)-4-((2-methoxy-3-(1-methyl-1H-1,2,4-triazol-3-yl)phenyl)amino)-N-methylpyridazine-3-carboxamide] | reversal of the PROTAC effect; also recorded: significantly reduces extent of degradation |

Same assay, conditions: 24 hour treatment, compound alone; PROTAC 1 at 100 nM

| Compound | amount of TYK2 protein, normalized to the amount of GADPH protein, detected in cell lysates (FIG. 2B) |
| --- | --- |
| Nc1cccc2c1C(=O)N(C1CCC(=O)NC1=O)C2=O (stereo not shown) [pomalidomide, reference compound] | does not significantly reduce the amount of TYK2 protein |
| CNC(=O)c1nnc(NC(=O)CCN2CCC(C3CN(c4ccc5c(c4)C(=O)N(C4CCC(=O)NC4=O)C5=O)C3)CC2)cc1Nc1cccc(-c2ncn(C)n2)c1OC (stereo not shown) [PROTAC 1, 6-(3-(4-(1-(2-(2,6-Dioxopiperidin-3-yl)-1,3-dioxoisoindolin-5-yl)azetidin-3-yl)piperidin-1-yl)propanamido)-4-((2-methoxy-3-(1-methyl-1H-1,2,4-triazol-3-yl)phenyl)amino)-N-methylpyridazine-3-carboxamide] | effective at 100 nM in reducing the amount of TYK2 protein; also recorded: shows degradation |

Same assay, conditions: MOLT-4 cells, 24 hours after treatment, TYK2 level related to DMSO-only cells

| Tyk2 Degradation Score | Compound |
| --- | --- |
| ++ (51-75% degradation) | CNC(=O)c1nnc(NC(=O)CCN2CCC(CCC3CCN(c4ccc(Oc5ccc6c(c5)C(=O)N(C5CCC(=O)NC5=O)C6=O)cc4)CC3)CC2)cc1Nc1cccc(-c2ncn(C)n2)c1OC (stereo not shown) [PROTAC 9, 6-(3-(4-(2-(1-(4-((2-(2,6-Dioxopiperidin-3-yl)-1,3-dioxoisoindolin-5-yl)oxy)phenyl)piperidin-4-yl)ethyl)piperidin-1-yl)propanamido)-4-((2-methoxy-3-(1-methyl-1H-1,2,4-triazol-3-yl)phenyl)amino)-N-methylpyridazine-3-carboxamide] |
| +++ (>75% degradation) | CNC(=O)c1nnc(NC(=O)CCN2CCC(CCCN3CCN(c4ccc5c(c4)C(=O)N(C4CCC(=O)NC4=O)C5=O)CC3)CC2)cc1Nc1cccc(-c2ncn(C)n2)c1OC (stereo not shown) [PROTAC 8, 6-(3-(4-(3-(4-(2-(2,6-Dioxopiperidin-3-yl)-1,3-dioxoisoindolin-5-yl)piperazin-1-yl)propyl)piperidin-1-yl)propanamido)-4-((2-methoxy-3-(1-methyl-1H-1,2,4-triazol-3-yl)phenyl)amino)-N-methylpyridazine-3-carboxamide] |
| +++ (>75% degradation) | CNC(=O)c1nnc(NC(=O)CCN2CC(CN3CCN(C4CCN(c5ccc6c(c5)C(=O)N(C5CCC(=O)NC5=O)C6=O)CC4)CC3)C2)cc1Nc1cccc(-c2ncn(C)n2)c1OC (stereo not shown) [PROTAC 7, 6-(3-(3-((4-(1-(2-(2,6-Dioxopiperidin-3-yl)-1,3-dioxoisoindolin-5-yl)piperidin-4-yl)piperazin-1-yl)methyl)azetidin-1-yl)propanamido)-4-((2-methoxy-3-(1-methyl-1H-1,2,4-triazol-3-yl)phenyl)amino)-N-methylpyridazine-3-carboxamide] |
| ++ (51-75% degradation) | CNC(=O)c1nnc(NC(=O)CCN2CCC(CNc3ccc4c(c3)C(=O)N(C3CCC(=O)NC3=O)C4=O)CC2)cc1Nc1cccc(-c2ncn(C)n2)c1OC (stereo not shown) [PROTAC 10, 6-(3-(4-(((2-(2,6-Dioxopiperidin-3-yl)-1,3-dioxoisoindolin-5-yl)amino)methyl)piperidin-1-yl)propanamido)-4-((2-methoxy-3-(1-methyl-1H-1,2,4-triazol-3-yl)phenyl)amino)-N-methylpyridazine-3-carboxamide] |

The remaining lines, values behind:

| Compound | Tyk2 Degradation Score |
| --- | --- |
| CNC(=O)c1nnc(NC(=O)CCN2CCN(c3cc(N4CCN(c5ccc6c(c5)C(=O)N(C5CCC(=O)NC5=O)C6=O)CC4)ncn3)CC2)cc1Nc1cccc(-c2ncn(C)n2)c1OC (stereo not shown) [PROTAC 4, 6-(3-(4-(6-(4-(2-(2,6-Dioxopiperidin-3-yl)-1,3-dioxoisoindolin-5-yl)piperazin-1-yl)pyrimidin-4-yl)piperazin-1-yl)propanamido)-4-((2-methoxy-3-(1-methyl-1H-1,2,4-triazol-3-yl)phenyl)amino)-N-methylpyridazine-3-carboxamide] | + (25-50% degradation) |
| CNC(=O)c1nnc(NC(=O)CCNCC2CCN(c3ccc4c(c3)C(=O)N(C3CCC(=O)NC3=O)C4=O)CC2)cc1Nc1cccc(-c2ncn(C)n2)c1OC (stereo not shown) [PROTAC 6, 6-(3-(((1-(2-(2,6-Dioxopiperidin-3-yl)-1,3-dioxoisoindolin-5-yl)piperidin-4-yl)methyl)amino)propanamido)-4-((2-methoxy-3-(1-methyl-1H-1,2,4-triazol-3-yl)phenyl)amino)-N-methylpyridazine-3-carboxamide] | ++ (51-75% degradation) |
| CNC(=O)c1nnc(NC(=O)CCN2CCC(COCC3CCN(c4ccc5c(c4)C(=O)N(C4CCC(=O)NC4=O)C5=O)CC3)CC2)cc1Nc1cccc(-c2ncn(C)n2)c1OC (stereo not shown) [PROTAC 5, 6-(3-(4-(((1-(2-(2,6-Dioxopiperidin-3-yl)-1,3-dioxoisoindolin-5-yl)piperidin-4-yl)methoxy)methyl)piperidin-1-yl)propanamido)-4-((2-methoxy-3-(1-methyl-1H-1,2,4-triazol-3-yl)phenyl)amino)-N-methylpyridazine-3-carboxamide] | + (25-50% degradation) |
| CNC(=O)c1nnc(NC(=O)CCN2CCC(C3CN(c4ccc5c(c4)C(=O)N(C4CCC(=O)NC4=O)C5=O)C3)CC2)cc1Nc1cccc(-c2ncn(C)n2)c1OC (stereo not shown) [PROTAC 1, 6-(3-(4-(1-(2-(2,6-Dioxopiperidin-3-yl)-1,3-dioxoisoindolin-5-yl)azetidin-3-yl)piperidin-1-yl)propanamido)-4-((2-methoxy-3-(1-methyl-1H-1,2,4-triazol-3-yl)phenyl)amino)-N-methylpyridazine-3-carboxamide] | + (25-50% degradation) |
| CNC(=O)c1nnc(NC(=O)CCN2CCN(c3ccc4c(c3)C(=O)N(C3CCC(=O)NC3=O)C4=O)CC2)cc1Nc1cccc(-c2ncn(C)n2)c1OC (stereo not shown) [PROTAC 2, 6-(3-(4-(2-(2,6-Dioxopiperidin-3-yl)-1,3-dioxoisoindolin-5-yl)piperazin-1-yl)propanamido)-4-((2-methoxy-3-(1-methyl-1H-1,2,4-triazol-3-yl)phenyl)amino)-N-methylpyridazine-3-carboxamide] | — (< 25% degradation) |
| CNC(=O)c1nnc(NC(=O)CCN2CCC(CC3CN(c4ccc5c(c4)C(=O)N(C4CCC(=O)NC4=O)C5=O)C3)CC2)cc1Nc1cccc(-c2ncn(C)n2)c1OC (stereo not shown) [PROTAC 3, 6-(3-(4-((1-(2-(2,6-Dioxopiperidin-3-yl)-1,3-dioxoisoindolin-5-yl)azetidin-3-yl)methyl)piperidin-1-yl)propanamido)-4-((2-methoxy-3-(1-methyl-1H-1,2,4-triazol-3-yl)phenyl)amino)-N-methylpyridazine-3-carboxamide] | ++ (51-75% degradation) |
